Some test systems named below: MDA-MB-231 breast; NCI-H226 lung; K-562 leukemia; SR leukemia; SF-268 CNS; SN12C renal; SK-MEL-2 melanoma; UO-31 renal; OVCAR-3 ovarian; OVCAR-8 ovarian.
Holding throughout (assay): inhibition of tumour cell growth, NCI panel, 48 h

Molecules are shown by their SMILES. Where “and” joins values, the source holds several entries; their conditions need not be identical. Equal values may be shown once.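 These data come from cells grown in 96-well plates and exposed to compound for 48 hours at five concentrations. GI50 = concentration required for 50% inhibition of growth. TGI: concentration producing complete growth inhibition.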

`Nc1cc(N)c2nc(-c3ccccc3)c(Nc3ccc(Cl)c(Cl)c3)nc2c1`: the GI50 in the assay on MDA-MB-231 breast is 5.72 µM; in the assay with NCI-H226 lung, 17.5 µM; in the assay with K-562 leukemia it was 3.57 µM; with SR leukemia, 2.56 µM; in the assay on SF-268 CNS, 12 µM; with SN12C renal it was 12.7 µM. Further, the GI50 in the assay with SK-MEL-2 melanoma was 2.32 µM; in the assay with UO-31 renal, 11.1 µM; in the assay on OVCAR-3 ovarian, 2.93 µM; in the assay with OVCAR-8 ovarian it was 5.18 µM. Also, the TGI with MDA-MB-231 breast is 27.8 µM; in the assay with NCI-H226 lung it was 37.6 µM; in the assay on K-562 leukemia it was greater than 100 µM; with SR leukemia it was 15.5 µM; with SF-268 CNS, 28.6 µM; in the assay with SN12C renal it was 31.8 µM. The TGI with SK-MEL-2 melanoma came out at 19.1 µM; in the assay with UO-31 renal, 36.3 µM; with OVCAR-3 ovarian, 9.91 µM; in the assay with OVCAR-8 ovarian, 79.8 µM.

On to `Oc1ccc2ccccc2c1N=Nc1nccs1`, for which the GI50 was 0.745 µM in the assay with MDA-MB-231 breast; 2.75 µM in the assay on NCI-H226 lung; 0.438 µM in the assay with K-562 leukemia; 0.111 µM with SR leukemia; 0.312 µM in the assay with SF-268 CNS; 1.77 µM in the assay on SN12C renal. Besides, the GI50 with SK-MEL-2 melanoma is 3.09 µM; in the assay with UO-31 renal, 0.216 µM; in the assay on OVCAR-3 ovarian it was 0.417 µM; in the assay with OVCAR-8 ovarian it was 0.494 µM. The TGI was greater than 100 µM in the assay with MDA-MB-231 breast; greater than 52.9 µM in the assay with NCI-H226 lung; greater than 100 µM in the assay with K-562 leukemia; greater than 100 µM in the assay with SF-268 CNS; 44 µM with SN12C renal; 34.5 µM with SK-MEL-2 melanoma. Further, the figures for the TGI in the assay on UO-31 renal, in the assay on OVCAR-3 ovarian and with OVCAR-8 ovarian were 11.9 µM, 8.99 µM and 42 µM, respectively.

Take `COC1/C=C\C=C(/C)C(=O)NC2=CC(=O)C(=O)C(=C2O)CC(C)CC(OC)C(O)C(C)/C=C(\C)C1OC(N)=O` (centres undefined): the TGI was 4.22 µM in the assay on MDA-MB-231 breast; greater than 100 µM in the assay on NCI-H226 lung; greater than 100 µM in the assay on K-562 leukemia; 25 µM with SR leukemia; greater than 58.9 µM in the assay with SF-268 CNS; 3.22 µM in the assay with SN12C renal. The TGI with SK-MEL-2 melanoma was greater than 60.5 µM; in the assay with UO-31 renal it was 39.8 µM; in the assay with OVCAR-3 ovarian, 19.7 µM; in the assay with OVCAR-8 ovarian, greater than 52.4 µM.

On to `COc1cc2c(c(O)c1Br)C(=O)c1c(O)cc(C[C@H](C)O)cc1[C@H]2[C@H]1c2cc(C[C@H](C)O)cc(O)c2C(=O)c2c1cc(OC)c(Br)c2O`, for which the GI50 in the assay on MDA-MB-231 breast is 3.76 µM and 14.1 µM; with NCI-H226 lung, 6.33 µM and 10.6 µM; with K-562 leukemia, 2.74 µM and 6.22 µM; with SR leukemia it was 3.04 µM and 3.98 µM; with SF-268 CNS, 12.3 µM and 31.2 µM; in the assay on SN12C renal it was 2.25 µM and 3.64 µM. Moreover, the GI50 is 6.37 µM and 18.1 µM with SK-MEL-2 melanoma; 7.52 µM and 15.4 µM in the assay with UO-31 renal; 15.3 µM and 31.1 µM in the assay on OVCAR-3 ovarian; 3.23 µM and 7.56 µM in the assay with OVCAR-8 ovarian. Besides, the TGI in the assay with MDA-MB-231 breast is 21.7 µM and 34.8 µM; with NCI-H226 lung it was 30.9 µM and 47.6 µM; with K-562 leukemia, 67.5 µM and > 100 µM; in the assay on SR leukemia, 67.5 µM and > 100 µM; in the assay with SF-268 CNS it was 67.5 µM and > 100 µM; in the assay on SN12C renal, 67.5 µM and > 100 µM. Besides, the TGI is 19.6 µM and 44 µM with SK-MEL-2 melanoma; 15.9 µM and 29.8 µM in the assay with UO-31 renal; 67.5 µM and > 100 µM with OVCAR-3 ovarian; 67.5 µM and > 100 µM with OVCAR-8 ovarian.

Consider `CCOc1cc2c(Cl)ncnc2c(OCC)c1OCC`, for which the GI50 with MDA-MB-231 breast was 11.9 µM; in the assay with NCI-H226 lung, 12.7 µM; with K-562 leukemia, 2.72 µM; with SR leukemia, 1.18 µM; in the assay with SF-268 CNS it was 2.84 µM; with SN12C renal, 12 µM. In addition, the GI50 in the assay on SK-MEL-2 melanoma is 3.61 µM; in the assay on UO-31 renal, 8.45 µM; in the assay with OVCAR-3 ovarian, 4 µM; in the assay with OVCAR-8 ovarian it was 6.34 µM. The TGI in the assay with MDA-MB-231 breast is 24.9 µM; in the assay with NCI-H226 lung it was 33.3 µM; in the assay with K-562 leukemia it was 12.5 µM; in the assay on SR leukemia, 4.31 µM; in the assay on SF-268 CNS it was 7.9 µM; in the assay with SN12C renal it was 26.2 µM. In addition, the TGI in the assay with SK-MEL-2 melanoma stood at 10.3 µM; with UO-31 renal, 23.6 µM; with OVCAR-3 ovarian it was 10.8 µM; with OVCAR-8 ovarian it was 28.5 µM.

For `CC(=O)OC[C@]1(C)C=C2C(=O)[C@](C)(O)C3(CC3)C(C)=C2[C@H]1O`, the GI50 is 0.152 µM in the assay on MDA-MB-231 breast; 0.217 µM with NCI-H226 lung; 0.131 µM in the assay on K-562 leukemia; 0.0667 µM with SR leukemia; 0.0384 µM with SF-268 CNS; 0.251 µM with SN12C renal. In addition, the GI50 is 0.127 µM with SK-MEL-2 melanoma, 0.114 µM with UO-31 renal, 0.0424 µM in the assay with OVCAR-3 ovarian and 0.177 µM in the assay on OVCAR-8 ovarian. For the same molecule, the TGI is 0.806 µM in the assay on MDA-MB-231 breast; 0.634 µM with NCI-H226 lung; greater than 100 µM in the assay with K-562 leukemia; greater than 100 µM in the assay with SR leukemia; 0.499 µM with SF-268 CNS; 6.21 µM with SN12C renal. Besides, the TGI amounted to 0.345 µM in the assay on SK-MEL-2 melanoma, 0.273 µM in the assay on UO-31 renal, 0.417 µM in the assay on OVCAR-3 ovarian and 4.51 µM in the assay with OVCAR-8 ovarian.

For `CC[CH2][Sn]([CH2]CC)([O]C(=O)c1cccnc1SC)[O][Sn]([CH2]CC)([CH2]CC)[O]C(=O)c1cccnc1SC`, the GI50 in the assay on MDA-MB-231 breast is 1.34 µM; in the assay on NCI-H226 lung it was 0.614 µM; in the assay with K-562 leukemia, 0.0756 µM; with SR leukemia it was 0.214 µM; with SF-268 CNS, 0.33 µM; in the assay with SN12C renal, 0.453 µM. The GI50 was 0.299 µM with SK-MEL-2 melanoma, 0.844 µM in the assay with UO-31 renal, 0.583 µM in the assay on OVCAR-3 ovarian and 0.599 µM with OVCAR-8 ovarian. Besides, the TGI is 2.76 µM in the assay on MDA-MB-231 breast; 1.79 µM in the assay with NCI-H226 lung; 4.32 µM with K-562 leukemia; 12.1 µM in the assay on SR leukemia; 0.969 µM in the assay on SF-268 CNS; 1.39 µM in the assay on SN12C renal. For the same molecule, the TGI with SK-MEL-2 melanoma turned out to be 0.823 µM; with UO-31 renal, 2.14 µM; in the assay on OVCAR-3 ovarian, 1.85 µM; in the assay with OVCAR-8 ovarian, 1.92 µM.

`CN1CCN(C(=O)OCc2nc3c(N4CCOCC4)nc(Cl)nc3n2C)CC1`: the GI50 in the assay on MDA-MB-231 breast is 0.566 µM; with NCI-H226 lung, 1.96 µM; with K-562 leukemia, 1.21 µM; with SR leukemia, 0.241 µM; in the assay on SF-268 CNS it was 1.59 µM; in the assay on SN12C renal, 1.45 µM. For the same molecule, the GI50 in the assay on SK-MEL-2 melanoma is 1.62 µM; with UO-31 renal, 1.07 µM; in the assay on OVCAR-3 ovarian, 0.547 µM; in the assay with OVCAR-8 ovarian, 1.33 µM. Also, the TGI came to 2.22 µM with MDA-MB-231 breast; 5.41 µM with NCI-H226 lung; 15.7 µM with K-562 leukemia; 1.33 µM in the assay on SR leukemia; 3.72 µM in the assay on SF-268 CNS; 3.06 µM in the assay with SN12C renal. The TGI stood at 3.45 µM in the assay with SK-MEL-2 melanoma, 2.29 µM in the assay on UO-31 renal, 2.15 µM with OVCAR-3 ovarian and 5.68 µM with OVCAR-8 ovarian.

The record behind these values is PubChem BioAssay (NCI).
